ChEMBL document CHEMBL1201862, “PubChem BioAssay data set” (2004)
Calls of active or inactive are those of the source.

Tests used:
[1] = cells; assay type: functional, cell-based
[2] = cells; assay type: functional, cell-based; remark: listed apart in the source
[3] = target: T1, Leucine aminopeptidase (Plasmodium falciparum 3D7, UniProt Q8IL11); test: P. falciparum M17LAP inhibitors, primary screen, biochemical, fluorogenic H-Leu-NHMec substrate, 1536-well (AID 1619); assay type: functional
T1 sequence (Q8IL11 whole entry): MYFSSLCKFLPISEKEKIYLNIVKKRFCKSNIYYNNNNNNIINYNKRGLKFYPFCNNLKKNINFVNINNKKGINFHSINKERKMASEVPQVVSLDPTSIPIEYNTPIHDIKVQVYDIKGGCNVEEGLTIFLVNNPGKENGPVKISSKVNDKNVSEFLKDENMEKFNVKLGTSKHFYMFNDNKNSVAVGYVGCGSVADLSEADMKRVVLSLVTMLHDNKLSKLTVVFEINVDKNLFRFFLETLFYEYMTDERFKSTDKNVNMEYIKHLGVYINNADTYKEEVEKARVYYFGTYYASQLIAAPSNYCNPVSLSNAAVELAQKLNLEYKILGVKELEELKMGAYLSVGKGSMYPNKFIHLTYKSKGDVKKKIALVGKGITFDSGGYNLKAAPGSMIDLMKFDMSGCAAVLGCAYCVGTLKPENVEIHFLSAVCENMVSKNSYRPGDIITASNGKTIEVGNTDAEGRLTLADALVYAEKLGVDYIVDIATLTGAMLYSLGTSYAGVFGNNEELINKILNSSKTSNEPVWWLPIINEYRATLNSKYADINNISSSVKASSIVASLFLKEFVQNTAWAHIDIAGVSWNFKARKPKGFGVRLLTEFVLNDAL

[4] = target: Cytochrome P450 2C19 (Homo sapiens, UniProt P33261); test: Cytochrome panel assay with activity outcomes. Panel member name: p450-cyp2c19 Compounds with AC50 equal or less than 10 uM are considered active; assay type: functional
Sequence of Cytochrome P450 2C19 (P33261 whole entry): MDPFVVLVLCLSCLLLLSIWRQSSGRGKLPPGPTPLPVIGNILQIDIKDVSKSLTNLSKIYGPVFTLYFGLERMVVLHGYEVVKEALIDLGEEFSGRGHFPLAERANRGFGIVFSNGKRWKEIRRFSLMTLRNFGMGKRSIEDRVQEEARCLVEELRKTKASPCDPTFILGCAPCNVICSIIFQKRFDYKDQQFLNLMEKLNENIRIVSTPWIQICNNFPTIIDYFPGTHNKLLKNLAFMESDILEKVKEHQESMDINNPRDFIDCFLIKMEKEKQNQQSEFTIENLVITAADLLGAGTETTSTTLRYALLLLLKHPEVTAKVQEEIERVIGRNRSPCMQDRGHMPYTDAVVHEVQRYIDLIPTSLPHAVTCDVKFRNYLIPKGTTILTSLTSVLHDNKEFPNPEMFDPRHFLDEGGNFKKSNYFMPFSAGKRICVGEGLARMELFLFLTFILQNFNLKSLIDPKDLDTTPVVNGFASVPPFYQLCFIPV

[5] = target: T2, Cytochrome P450 1A2 (Homo sapiens, UniProt P05177);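 also: PubChem cytochrome P450 panel assay, CYP1A2 panel member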
T2 sequence (P05177 whole entry): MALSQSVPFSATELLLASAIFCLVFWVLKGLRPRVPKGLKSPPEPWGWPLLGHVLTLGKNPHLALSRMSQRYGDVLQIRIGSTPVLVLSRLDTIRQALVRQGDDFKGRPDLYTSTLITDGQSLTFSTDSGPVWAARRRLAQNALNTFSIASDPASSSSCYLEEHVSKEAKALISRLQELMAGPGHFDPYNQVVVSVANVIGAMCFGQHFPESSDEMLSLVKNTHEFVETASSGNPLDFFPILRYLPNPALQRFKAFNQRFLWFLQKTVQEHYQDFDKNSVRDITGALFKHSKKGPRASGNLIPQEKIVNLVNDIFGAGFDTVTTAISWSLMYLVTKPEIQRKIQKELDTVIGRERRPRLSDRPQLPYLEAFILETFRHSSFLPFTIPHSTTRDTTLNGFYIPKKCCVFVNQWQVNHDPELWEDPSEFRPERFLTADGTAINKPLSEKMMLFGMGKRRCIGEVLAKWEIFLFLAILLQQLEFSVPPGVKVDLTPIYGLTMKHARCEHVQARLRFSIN

[6] = target: Cytochrome P450 2C9 (Homo sapiens, UniProt P11712)
Sequence of Cytochrome P450 2C9 (P11712 whole entry): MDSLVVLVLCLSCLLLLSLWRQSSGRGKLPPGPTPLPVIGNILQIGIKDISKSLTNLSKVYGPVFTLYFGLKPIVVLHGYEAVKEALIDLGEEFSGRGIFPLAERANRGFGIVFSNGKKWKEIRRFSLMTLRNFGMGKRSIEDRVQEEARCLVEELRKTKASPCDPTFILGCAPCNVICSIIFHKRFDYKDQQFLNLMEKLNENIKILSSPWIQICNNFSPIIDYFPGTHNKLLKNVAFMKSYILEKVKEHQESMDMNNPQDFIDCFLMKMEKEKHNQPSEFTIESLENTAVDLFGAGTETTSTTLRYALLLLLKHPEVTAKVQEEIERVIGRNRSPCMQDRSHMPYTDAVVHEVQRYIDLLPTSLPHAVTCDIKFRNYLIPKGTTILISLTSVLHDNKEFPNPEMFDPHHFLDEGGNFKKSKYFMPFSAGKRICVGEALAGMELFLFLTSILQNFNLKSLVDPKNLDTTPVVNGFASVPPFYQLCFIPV

[7] = viability of uninfected HEp-2 cells – cell-based, HTS, cytotoxicity control for RSV inhibitor project, dose response (AID 2410); assay type: functional; settings: human respiratory syncytial virus
[8] = target: Fatty acid synthase (Homo sapiens, UniProt P49327); test: inhibition of human FAS-TE enzyme activity – biochemical, kinetic fluorescence intensity, dose response (AID 624326); assay type: functional;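 also: rate of fluorescence rise from hydrolysis of a fluorogenic O-methyl fluorescein ester substrate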
Sequence of Fatty acid synthase (P49327 whole entry): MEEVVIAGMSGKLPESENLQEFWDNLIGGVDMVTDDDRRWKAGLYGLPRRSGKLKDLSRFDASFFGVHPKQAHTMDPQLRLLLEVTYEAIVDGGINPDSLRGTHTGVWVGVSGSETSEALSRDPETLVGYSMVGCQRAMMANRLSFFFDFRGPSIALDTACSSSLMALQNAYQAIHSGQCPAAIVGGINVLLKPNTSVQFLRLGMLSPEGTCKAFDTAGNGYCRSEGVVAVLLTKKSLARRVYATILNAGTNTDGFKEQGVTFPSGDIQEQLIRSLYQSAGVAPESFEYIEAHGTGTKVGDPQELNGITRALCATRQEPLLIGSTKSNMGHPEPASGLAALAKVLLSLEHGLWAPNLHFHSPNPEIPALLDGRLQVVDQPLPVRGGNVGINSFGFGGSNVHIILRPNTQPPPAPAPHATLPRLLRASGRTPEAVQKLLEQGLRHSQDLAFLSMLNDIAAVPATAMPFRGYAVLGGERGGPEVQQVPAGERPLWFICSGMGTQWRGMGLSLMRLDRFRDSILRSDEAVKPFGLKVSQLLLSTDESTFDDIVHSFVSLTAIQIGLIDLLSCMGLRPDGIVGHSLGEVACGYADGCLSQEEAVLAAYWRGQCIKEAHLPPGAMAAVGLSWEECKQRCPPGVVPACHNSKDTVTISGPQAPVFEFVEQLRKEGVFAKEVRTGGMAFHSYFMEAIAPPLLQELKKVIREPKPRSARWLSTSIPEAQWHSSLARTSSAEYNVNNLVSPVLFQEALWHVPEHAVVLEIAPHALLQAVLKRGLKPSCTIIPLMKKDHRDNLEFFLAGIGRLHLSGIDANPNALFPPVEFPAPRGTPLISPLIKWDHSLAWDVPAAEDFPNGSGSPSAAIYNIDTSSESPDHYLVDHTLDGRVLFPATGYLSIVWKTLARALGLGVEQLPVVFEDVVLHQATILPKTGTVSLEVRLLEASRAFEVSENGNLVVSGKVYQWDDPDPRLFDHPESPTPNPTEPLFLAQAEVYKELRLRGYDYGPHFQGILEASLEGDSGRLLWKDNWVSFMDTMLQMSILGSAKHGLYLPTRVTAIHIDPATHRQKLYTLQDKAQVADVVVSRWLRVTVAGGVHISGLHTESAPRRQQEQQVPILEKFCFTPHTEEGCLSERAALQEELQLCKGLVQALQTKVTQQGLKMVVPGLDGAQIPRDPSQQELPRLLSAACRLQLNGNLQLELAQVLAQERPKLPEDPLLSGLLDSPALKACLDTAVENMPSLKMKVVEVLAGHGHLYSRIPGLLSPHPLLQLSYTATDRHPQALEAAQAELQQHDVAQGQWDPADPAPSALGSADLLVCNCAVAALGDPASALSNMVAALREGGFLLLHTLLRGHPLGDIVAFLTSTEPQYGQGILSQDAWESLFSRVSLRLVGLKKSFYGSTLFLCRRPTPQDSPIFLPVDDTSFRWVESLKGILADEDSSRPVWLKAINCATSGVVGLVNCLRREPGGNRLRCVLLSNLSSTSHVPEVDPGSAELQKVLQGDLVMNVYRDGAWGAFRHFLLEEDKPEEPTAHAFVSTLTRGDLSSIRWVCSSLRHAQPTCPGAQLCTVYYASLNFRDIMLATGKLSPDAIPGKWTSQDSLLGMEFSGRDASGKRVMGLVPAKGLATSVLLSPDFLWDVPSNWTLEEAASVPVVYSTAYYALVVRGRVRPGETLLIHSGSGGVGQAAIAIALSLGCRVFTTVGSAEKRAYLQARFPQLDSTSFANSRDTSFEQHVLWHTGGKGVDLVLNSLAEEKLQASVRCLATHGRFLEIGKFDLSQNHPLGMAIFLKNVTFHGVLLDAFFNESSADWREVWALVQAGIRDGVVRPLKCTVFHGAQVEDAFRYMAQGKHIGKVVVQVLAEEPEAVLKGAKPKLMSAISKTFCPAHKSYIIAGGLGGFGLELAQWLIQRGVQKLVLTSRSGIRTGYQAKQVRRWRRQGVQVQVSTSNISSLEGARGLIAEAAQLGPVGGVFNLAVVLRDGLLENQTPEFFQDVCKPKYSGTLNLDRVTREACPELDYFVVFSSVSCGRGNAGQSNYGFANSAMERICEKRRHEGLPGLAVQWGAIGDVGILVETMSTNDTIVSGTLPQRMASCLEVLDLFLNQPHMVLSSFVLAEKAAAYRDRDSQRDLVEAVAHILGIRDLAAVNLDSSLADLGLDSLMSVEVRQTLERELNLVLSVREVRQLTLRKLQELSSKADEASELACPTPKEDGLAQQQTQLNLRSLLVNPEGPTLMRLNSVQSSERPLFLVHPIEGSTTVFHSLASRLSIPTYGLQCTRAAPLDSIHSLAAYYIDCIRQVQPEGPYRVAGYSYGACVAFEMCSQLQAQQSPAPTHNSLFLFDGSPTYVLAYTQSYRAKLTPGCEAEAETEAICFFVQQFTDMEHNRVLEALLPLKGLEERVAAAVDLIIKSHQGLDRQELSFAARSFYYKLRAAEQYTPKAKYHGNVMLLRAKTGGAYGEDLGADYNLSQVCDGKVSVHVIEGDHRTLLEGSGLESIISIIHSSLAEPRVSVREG

[9] = NIH-3T3 fibroblast cytotoxicity, dose response, cytotoxicity control, cell-based, fluorescence, Alamar Blue, secondary assay (AID 2327); assay type: functional;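 also: NIH-3T3 mouse fibroblasts cultured with fluconazole at 8 µg/mL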
[10] = fluconazole-exposed Candida albicans growth modulators – fluorescence, retest, confirmation (AID 2467); assay type: functional, cell-based
[11] = target: FAD-linked sulfhydryl oxidase ALR (Homo sapiens, UniProt P55789); test: ALR-catalysed DTT oxidation blockers – biochemical, H2O2 detection, luminescence, cherry-pick, dose response (AID 493248)
Sequence of FAD-linked sulfhydryl oxidase ALR (P55789 whole entry): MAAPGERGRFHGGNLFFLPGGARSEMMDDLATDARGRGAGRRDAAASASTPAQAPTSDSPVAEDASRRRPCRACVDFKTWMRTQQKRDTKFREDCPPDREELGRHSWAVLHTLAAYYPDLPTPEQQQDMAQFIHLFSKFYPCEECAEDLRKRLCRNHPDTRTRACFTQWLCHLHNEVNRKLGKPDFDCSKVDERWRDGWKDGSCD

[12] = target: T3, Rac GTPase-activating protein 1 (Homo sapiens, UniProt Q9H0H5); test: blockers of MgcRacGAP-driven Rac1 GTP hydrolysis – biochemical, ADP Hunter fluorescence, primary and confirmatory, confirmation (AID 624330); assay type: functional
T3 sequence (Q9H0H5 whole entry): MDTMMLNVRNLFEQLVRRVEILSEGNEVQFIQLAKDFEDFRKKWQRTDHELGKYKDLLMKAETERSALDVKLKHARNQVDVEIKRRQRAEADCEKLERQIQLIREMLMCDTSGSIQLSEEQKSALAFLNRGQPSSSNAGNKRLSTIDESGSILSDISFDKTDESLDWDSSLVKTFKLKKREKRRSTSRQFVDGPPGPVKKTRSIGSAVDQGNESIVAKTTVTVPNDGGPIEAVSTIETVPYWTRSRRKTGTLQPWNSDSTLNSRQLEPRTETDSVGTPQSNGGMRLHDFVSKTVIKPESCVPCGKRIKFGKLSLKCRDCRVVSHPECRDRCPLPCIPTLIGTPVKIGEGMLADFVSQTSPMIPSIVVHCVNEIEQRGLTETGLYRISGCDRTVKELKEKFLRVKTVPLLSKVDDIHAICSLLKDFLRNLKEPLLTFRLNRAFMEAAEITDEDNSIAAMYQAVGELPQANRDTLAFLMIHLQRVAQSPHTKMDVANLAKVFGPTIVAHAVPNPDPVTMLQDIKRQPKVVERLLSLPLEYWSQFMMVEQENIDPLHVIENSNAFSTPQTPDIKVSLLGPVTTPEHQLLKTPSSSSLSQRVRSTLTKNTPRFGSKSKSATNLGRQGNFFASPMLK

[13] = Luminescence Cell-Based Dose Confirmation HTS to Identify Activators of 5'UTR Stem-Loop Driven Alpha-Synuclein mRNA Translation in H4 Neuroglioblastoma Cells. [Related pubchem assays: 1829 (Project Summary), 1814 (Primary HTS)]; assay type: functional
[14] = Luminescence Cell-Based Dose Response HTS to Identify Activators of Luciferase Translation or Activity in H4 […] Cells. [Related pubchem assays: 1829 (Project Summary), 1814 (Primary HTS)]; assay type: functional
[15] = test system: H4; test: Luminescence Cell-Based Dose Response HTS to Identify Activators of 5'UTR Stem-Loop Driven Prion Protein mRNA Translation in H4 Neuroglioblastoma Cells. [Related pubchem assays: 1829 (Project Summary), 1814 (Primary HTS)]; assay type: functional; settings: Homo sapiens
[16] = target: Cytochrome P450 3A4 (Homo sapiens, UniProt P08684);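 also: CYP3A4 tested as one member of a cytochrome P450 panel screen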
Sequence of Cytochrome P450 3A4 (P08684 whole entry): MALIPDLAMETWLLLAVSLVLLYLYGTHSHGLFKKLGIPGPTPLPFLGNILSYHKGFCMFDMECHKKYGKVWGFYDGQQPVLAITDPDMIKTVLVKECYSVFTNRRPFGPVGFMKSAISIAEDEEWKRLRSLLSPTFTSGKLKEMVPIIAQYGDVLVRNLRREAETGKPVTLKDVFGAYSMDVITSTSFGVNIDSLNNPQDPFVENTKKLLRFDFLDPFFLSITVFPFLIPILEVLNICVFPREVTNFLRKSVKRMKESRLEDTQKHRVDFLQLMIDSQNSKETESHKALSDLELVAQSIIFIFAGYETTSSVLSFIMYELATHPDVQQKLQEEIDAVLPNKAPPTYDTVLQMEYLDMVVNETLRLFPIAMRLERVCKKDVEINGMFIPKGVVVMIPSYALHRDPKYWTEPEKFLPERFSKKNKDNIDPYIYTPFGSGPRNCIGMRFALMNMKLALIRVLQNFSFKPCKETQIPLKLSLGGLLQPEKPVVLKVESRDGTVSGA

[17] = reduction of Shn3 3'UTR-driven luciferase in osteoblasts – cell-based, Clone20 osteoblasts, firefly luciferase, cherry-picked, dose response (AID 624132); assay type: functional;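 also: firefly luciferase luminescence from reporter carrying the Shn3 3'UTR in osteoblasts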
[18] = non-specific 3'UTR reporter inhibition in Clone20-Shn3RL – cell-based, Renilla luciferase, cherry-picked, counter-screen for Shn3 inhibitor project, dose response (AID 624133); assay type: functional
[19] = Luminescence Cell-Based Dose Retest to Confirm Inhibitors of Cancer Stem Cells. [Related pubchem assays (depositor defined):AID2717, AID2721]; assay type: functional; settings: Homo sapiens
[20] = test system: INS1; test: INS-1E survival protection against cytokine death – cell-based, luminescence, retest, dose response (AID 449756); assay type: functional; settings: Rattus norvegicus;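 also: cell death triggered by IL-1 beta plus TNF-alpha plus IFN-gamma mixture; protective hits raise ATP signal compared with cytokine alone wells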

S=C(Nc1ccc2c[nH]nc2c1)Nc1ccccc1Cl
EC50 [1]: > 350 µM (not active) | EC50 [2]: > 350 µM (not active)

COc1ccc(C2CC(=O)c3sc(N)nc3C2)cc1 (stereo not given)
IC50 [3]: 30.1 µM (active)

CC(OC(=O)Cn1c(C(F)(F)F)nc2ccccc21)C(N)=O (stereo not given)
AC50 ([4]; read-out: AC50): 28.2 µM (inconclusive) | AC50 [5]: 25.1 µM (inconclusive) | AC50 [6]: 0.631 µM (inconclusive)

Cc1cc(=O)oc(C)c1C(=O)NCc1ccccc1
AC50 ([4]; read-out: AC50): 39.8 µM (inconclusive)

CN(CC(=O)Nc1ccc(Cl)c(C(F)(F)F)c1)C(=O)CCCNC(=O)c1ccc(Cl)cc1
CC50 [7]: 2.49 µM (active)

O=C(O)c1ccccc1Nc1ccc([N+](=O)[O-])cc1C(=O)O
EC50 [1]: > 350 µM (not active) | EC50 [2]: > 350 µM (not active)

CC(C)(C)c1nc2scc(-c3cccs3)c2c(=O)o1
IC50 [8]: 3.42 µM (active)

S=C(c1ccc(-c2cc(Cl)ccc2Cl)o1)N1CCCCC1
CC50 [7]: > 50 µM (active)

Cc1ccc(NNC(=O)c2ccno2)cc1C
EC50 [9]: > 160 µM (inactive) | EC50 [10]: 0.763 µM (active) | AC50 [11]: 0.439 µM (active)

Cc1ccc(NC(=O)c2nnn(-c3ccc4c(c3)OCCO4)c2N)cc1
CC50 [7]: > 50 µM (active)

CCCNC(=O)c1cc2nc(-c3ccccc3)cc(C(F)(F)F)n2n1
EC50 [1]: > 350 µM (not active) | EC50 [2]: > 350 µM (not active)

CC(=O)N1CC[n+]2c(-c3ccc(Cl)cc3)csc21
AC50 [11]: 1.88 µM (active)

CC(C)CN(CCNC(=O)c1cn(C)c2ccc(S(=O)(=O)N3CCCC3)cc2c1=O)CC(C)C
EC50 [1]: > 350 µM (not active) | EC50 [2]: > 350 µM (not active)

COc1ccc(CCn2ccc(O)c(Cc3ccc(Cl)cc3)c2=O)cc1OC
CC50 [7]: 20 µM (active)

COc1ccc(-c2csc(NC(=O)c3cc(C)oc3C)n2)cc1OC
CC50 [7]: 26.6 µM (active)

O=C(NN=Cc1ccc(O)cc1)c1cc[n+](Cc2ccccc2)cc1
AC50 [11]: 2.05 µM (active) | IC50 [12]: 137 µM (active)

Cc1ccc(NC(=O)NC2=NN(c3ccccc3)C(=O)/C2=C2/CCCN2C)cc1
EC50 [13]: 32.5 µM (active) | EC50 [14]: 18.1 µM (active) | EC50 [15]: 14.4 µM (active)

CCS(=O)(=O)N1CCC(C(=O)NCc2cccnc2)CC1
AC50 ([4]; read-out: AC50): 22.4 µM (inconclusive) | AC50 [6]: 11.2 µM (inconclusive)

Cc1ccccc1-c1cc(C(=O)n2cccn2)c2cc(Cl)ccc2n1
AC50 ([4]; read-out: AC50): 7.08 µM (inconclusive) | AC50 [5]: 17.8 µM (inconclusive)

Cc1cc(NS(=O)(=O)c2ccc(NC(=O)Nc3ccc4c(c3)OCO4)cc2)no1
IC50 [3]: 13.3 µM (active)

OC(COc1ccc2ccccc2c1Cl)CN1CCOCC1 (stereo not given)
EC50 [13]: 4.79 µM (active) | EC50 [14]: 6.79 µM (active) | EC50 [15]: 9.81 µM (active)

Cn1ccnc1Sc1nc2ccccc2nc1NS(=O)(=O)c1ccccc1
IC50 [3]: 29.2 µM (active)

CCC(Sc1nc(C)cc(O)n1)C(=O)Nc1sc2c(c1C#N)CCCC2 (stereo not given)
EC50 [1]: > 350 µM (not active) | EC50 [2]: > 350 µM (not active)

CCOC(=O)N1CCN(C(=O)CSCc2ccc(Cl)cc2)CC1
AC50 ([4]; read-out: AC50): 17.8 µM (inconclusive)

CCCCC[C@H](CC(=O)NO)C(=O)N[C@@H](C(=O)N1CCC[C@H]1CO)C(C)C
AC50 [4]: inconclusive | AC50 [16]: 5.01 µM (inconclusive)

CCOC(=O)c1sc(NC(=O)CSc2nnc[nH]2)c(C#N)c1C
IC50 [3]: 73 µM (active)

COC(=O)C1=C(c2ccc3ccccc3c2)C[C@@H]2CC[C@H]1N2C(=O)NCC1CC1
AC50 [17]: 6.86 µM (active) | AC50 [18]: 30.6 µM (active)

CCOc1ccc2c(C)c(Cl)c(=O)oc2c1
EC50 [1]: > 350 µM (not active) | EC50 [2]: > 350 µM (not active)

Cc1ccc2c(c1)C(O)(CC(=O)/C=C/C=C/c1ccccc1)C(=O)N2 (stereo not given)
EC50 [13]: 17 µM (active) | EC50 [14]: 11.8 µM (active) | EC50 [15]: > 120 µM (not active)

CCN1C[C@]2(C)CC[C@H](OC)[C@@]34[C@@H]2[C@H](OC(C)=O)C2(OCO[C@@]25C[C@@H](OC)[C@H]2C[C@@]3(O)[C@H]5[C@@H]2OC)[C@H]14
AC50 [4]: inconclusive | AC50 [16]: 15.8 µM (inconclusive)

Cc1cc(O)nc(N/N=C/c2ccccn2)n1
EC50 [1]: 33.1 µM (active) | EC50 [2]: 40.4 µM (active) | AC50 [19]: 2.89 µM (active) | AC50 [20]: 1.37 µM (active)

O=C(O)c1cc(N/N=C/c2ccc(OCc3ccccc3)cc2)ccc1Cl
IC50 [3]: 20 µM (active)

CC1=NNC(=O)C1CC(=O)N/N=C(\C)c1ccco1 (stereo not given)
IC50 [3]: 12.3 µM (active)

Cn1ccnc1 [1-METHYLIMIDAZOLE]
AC50 [4]: inconclusive

O=C(O)c1c2ccccc2cc2ccccc12 [ANTHRACENE-9-CARBOXYLIC ACID]
AC50 ([4]; read-out: AC50): 25.1 µM (inconclusive)
